Reference: ChEMBL document CHEMBL5728073, “Compounds that inhibit Mcl-1 protein” (2020)

Test: Time-Resolved Fluorescence Resonance Energy Transfer (TR-FRET) Assay: The inhibition of the Mcl-1/Bim interaction was measured using a time-resolved fluorescence resonance energy transfer (TR-FRET) assay. The recombinant human Mcl-1 (C-terminally 6ÃHis tagged Mcl-1 containing residues 171-327) was generated at Amgen Inc (Thousand Oaks, Calif.). A biotinylated peptide derived from human Bim …
Description: Time-Resolved Fluorescence Resonance Energy Transfer (TR-FRET) Assay: The inhibition of the Mcl-1/Bim interaction was measured using a time-resolved fluorescence resonance energy transfer (TR-FRET) assay. […] A biotinylated peptide derived from human Bim (residues 51-76) was purchased from CPC Scientific (San Jose, Calif.). The TR-FRET assay was conducted in a 384-well white OptiPlate (PerkinElmer, Waltham, Mass.) in a total volume of 40 uL. […] The reaction plates were further incubated overnight and then were read on an EnvisionÂ multimode reader (PerkinElmer). […] The IC50 values of test compounds were determined from duplicate data by analyzing competition curves using a four-parameter sigmoidal model in GraphPad Prism.
`C[C@@H]1[C@@H](C)C/C=C\[C@](O)(CN2CCN3CCCC[C@@H]3C2)[C@@H]2CC[C@H]2CN2C[C@@]3(CCCc4cc(Cl)ccc43)COc3ccc(cc32)C(=O)NS1(=O)=O` showed an IC50 of 0.097 nM.
Work on `CCCCN1CCN(C[C@]2(OC)/C=C/C[C@H](C)[C@@H](C)S(=O)(=O)NC(=O)c3ccc4c(c3)N(C[C@@H]3CC[C@H]32)C[C@@]2(CCCc3cc(Cl)ccc32)CO4)CC1` yielded an IC50 of 0.225 nM.
In the case of `CO[C@@]1(CN2CCN3CCC(F)(F)C[C@@H]3C2)/C=C\C[C@H](C)[C@@H](C)S(=O)(=O)NC(=O)c2ccc3c(c2)N(C[C@@H]2CC[C@H]21)C[C@@]1(CCCc2cc(Cl)ccc21)CO3`, the IC50 is reported as 0.494 nM.
